Assay results as given in patent US6358492B1, “Dopamine transporter imaging ligand” (Research Triangle Institute, priority 1997, dated 2002).
Counter-ions that a name gives are not always drawn. Like-named read-outs stand apart in the source and are kept apart here.

Key:
dopamine transporter [1] = molecular target: dopamine transporter (Mus musculus, UniProt Q61327); assay: In vivo binding / regional brain distribution of radiolabeled ligand after i.v. injection in mice
Method: Male CD mice weighting 25-35 g received 1 μCi [^3H]RTI-352 ([…], diluted in saline containing 0.5% methanol) by intravenous injection. The animals were killed at different times, and [^3H]RTI-352 concentrations in different brain regions determined as previously described (Scheffel et al., 1989; Cline et al., 1992). To evaluate the selectivity of [^3H]RTI-352 in vivo binding, blocking doses (5 mg/kg, dissolved in 0.1 ml saline) of GBR 12,909 (DAT blocker), desipramine (NET blocker), or paroxetine (5-HTT blocker) were injected intravenously 5 minutes before [^3H]RTI-352 tracer injection. The animals were killed 30 minutes later and [^3H]RTI-352 concentrations determined in the various brain tissues.
The percent dose per gram tissue peaked rapidly in all regions of the brain and was maintained for a slightly longer time in the striatum compared to other tissues that lack DAT. The tissue to cerebellar ratios reflected this fact in that striatal to cerebellar ratios were relatively high at early times but low at later times (FIG. 1).

[2] = molecular target: norepinephrine transporter (UniProt Q9WTR4); assay: Inhibition of 0.5 nM [3H]nisoxetine binding to the norepinephrine transporter; conditions: read-out: IC50 NE [3H]Nisoxetine; 0.5 nM [3H]nisoxetine; mean ± standard error where given
dopamine transporter [3] = molecular target: T1, dopamine transporter (UniProt P23977); assay type: binding; conditions: read-out: IC50 DA [3H]WIN 35,428; 0.5 nM [3H]WIN 35,428; mean ± standard error where given
T1 construct: other: 0.5 nM [3H]WIN 35,428; mean ± standard error where given

serotonin transporter [4] = molecular target: serotonin transporter (UniProt P31652); conditions: read-out: IC50 5-HT [3H]Paroxetine; 0.2 nM [3H]paroxetine; values taken from literature (footnotes d-h); cited from earlier work
[5] = system: norepinephrine transporter; assay: Inhibition of 0.5 nM [3H]nisoxetine binding to the norepinephrine transporter; conditions: ratio of IC50 values
serotonin transporter [6] = assay type: binding; conditions: for 5-HT/DA Ratio: ratio of IC50 values
serotonin transporter [7] = molecular target: serotonin transporter (UniProt P31652); assay type: binding; conditions: read-out: IC50 5-HT [3H]Paroxetine; 0.2 nM [3H]paroxetine; mean ± standard error where given
dopamine transporter [8] = molecular target: T1, dopamine transporter; conditions: read-out: IC50 DA [3H]WIN 35,428; 0.5 nM [3H]WIN 35,428; values taken from literature (footnotes c-h); cited from earlier work
[9] = molecular target: norepinephrine transporter (UniProt Q9WTR4); conditions: read-out: IC50 NE [3H]Nisoxetine; 0.5 nM [3H]nisoxetine; values taken from literature (footnotes d-h); cited from earlier work

Sequence of dopamine transporter (Mus musculus, UniProt Q61327) (Q61327 whole entry): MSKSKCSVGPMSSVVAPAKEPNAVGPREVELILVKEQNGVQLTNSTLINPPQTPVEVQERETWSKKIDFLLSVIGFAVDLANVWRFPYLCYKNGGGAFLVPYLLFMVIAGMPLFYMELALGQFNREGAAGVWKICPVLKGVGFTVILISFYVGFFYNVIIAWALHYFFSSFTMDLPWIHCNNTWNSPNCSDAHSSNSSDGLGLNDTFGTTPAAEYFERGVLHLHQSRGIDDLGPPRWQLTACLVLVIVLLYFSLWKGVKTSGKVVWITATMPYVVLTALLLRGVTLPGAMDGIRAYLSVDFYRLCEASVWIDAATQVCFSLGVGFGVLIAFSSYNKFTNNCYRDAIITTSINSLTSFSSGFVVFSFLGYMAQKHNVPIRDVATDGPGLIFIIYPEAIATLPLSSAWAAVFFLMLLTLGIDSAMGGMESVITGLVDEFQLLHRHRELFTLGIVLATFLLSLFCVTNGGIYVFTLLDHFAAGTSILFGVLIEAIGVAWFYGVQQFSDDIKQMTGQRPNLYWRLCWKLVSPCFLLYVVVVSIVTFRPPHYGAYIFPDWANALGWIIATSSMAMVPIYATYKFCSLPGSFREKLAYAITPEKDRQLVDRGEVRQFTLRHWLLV

COC(=O)[C@H]1[C@@H](c2ccc([125I])cc2)C[C@@H]2CC[C@H]1N2C [[^125I]RTI-55, reference compound]
approach to equilibrium of striatal to cerebellar ratios (dopamine transporter [1]; mouse, parallel in vivo labeling experiments): steadily increasing at 120 min

COC(=O)C1C(c2ccccc2)CC2CCC1N2C (stereo not shown) [2e]
IC50 [2]: 2080 nM | IC50 (dopamine transporter [3]): 101 ± 16 nM

COC(=O)C1C(c2ccc(I)cc2)CC2CCC1N2C (stereo not shown) [1b, reference compound]
IC50 (serotonin transporter [4]): 4.21 ± 0.3 nM | NE/DA Ratio [5]: 29 | 5-HT/DA Ratio (serotonin transporter [6]): 3.3

COC(=O)[C@@H]1[C@H]2CC[C@@H](C[C@H]1c1ccc(I)cc1)N2C.Cc1ccc(S(=O)(=O)O)cc1 [2b, 3α-(4-Iodophenyl)tropane-2β-carboxylic acid methyl ester tosylate]
time at which striatal-to-cerebellar ratio peaked (dopamine transporter [1]; mouse brain, i.v. tracer): about 30 min | time the peak striatal-to-cerebellar ratio was maintained thereafter (dopamine transporter [1]; mouse brain, i.v. tracer): about 20 min | NE/DA Ratio [5]: 18 | IC50 [2]: 52.4 ± 4.9 nM | IC50 (dopamine transporter [3]): 2.85 ± 0.16 nM | 5-HT/DA Ratio (serotonin transporter [6]): 23 | times more selective for the DAT relative to the 5-HT transporter (serotonin transporter [6]; relative to 1b (RTI-55)): 7 times | IC50 (serotonin transporter [7]): 64.9 ± 1.97 nM

[3H]C([3H])([3H])N1[C@H]2CC[C@@H]1[C@@H](C(=O)OC)[C@H](c1ccc(I)cc1)C2 [[^3H]RTI-352]
hypothalamus/cerebellum ratio (dopamine transporter [1]; mouse brain, i.v. 1 μCi tracer, little enrichment at any time): 1.4 | efflux from brain (dopamine transporter [1]; mouse, i.v. injection): relatively rapid | penetration into brain (dopamine transporter [1]; mouse, i.v. injection): very rapid

COC(=O)C1C(c2ccccc2)CC2CCC1N2C (stereo not shown) [1e]
IC50 (dopamine transporter [8]): 23 ± 5 nM | IC50 [9]: 920 ± 73 nM

COC(=O)C1C(c2ccc(Cl)cc2)CC2CCC1N2C (stereo not shown) [1c]
IC50 (serotonin transporter [4]): 44.5 ± 1.3 nM

COC(=O)[C@@H]1[C@H]2CC[C@@H](C[C@H]1c1ccc(C)cc1)N2C [2d, 3α-(4-Methylphenyl)tropane-2β-carboxylic acid methyl ester tosylate]
IC50 [2]: 275 ± 24 nM | IC50 (dopamine transporter [3]): 10.2 ± 0.8 nM

COC(=O)C1C(c2ccc(F)cc2)CC2CCC1N2C (stereo not shown) [1a]
IC50 (serotonin transporter [4]): 810 ± 59 nM | IC50 [9]: 835 ± 45 nM

COC(=O)[C@@H]1[C@H]2CC[C@@H](C[C@H]1c1ccc(F)cc1)N2C [2a, 3α-(4-Fluorophenyl)tropane-2β-carboxylic acid methyl ester]
IC50 [2]: 1230 nM | IC50 (serotonin transporter [7]): 5060 nM

COC(=O)[C@@H]1[C@H]2CC[C@@H](C[C@H]1c1ccc(Cl)cc1)N2C [2c, 3α-(4-Chlorophenyl)tropane-2β-carboxylic acid methyl ester tosylate]
IC50 (dopamine transporter [3]): 2.4 ± 0.2 nM | IC50 (serotonin transporter [7]): 998 ± 120 nM
